Laboratory results from ChEMBL document CHEMBL1201862, “PubChem BioAssay data set” (2004).
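Assay format: 96-well plates, 48-hour exposure. Abbreviation: GI50, concentration required for 50% inhibition of growth.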 The source made the active and inactive calls. No stated cut-off is given here; in the data, active = GI50 up to about 1.1 µM and inactive = higher.

Tests used:
Test in all cases: DTP human tumour cell line panel, 48 h
A498 = system: A498
A549 = system: A549
BT-549 = system: BT-549
CAKI-1 = system: CAKI-1
DU-145 = system: DU-145
EKVX = system: EKVX
HCT-15 = system: HCT-15
Hs-578T = system: Hs-578T
IGROV-1 = system: IGROV-1
KM12 = system: KM12
LOX IMVI = system: LOX IMVI
MCF7 = system: MCF7
Malme-3M = system: Malme-3M
NCI-H522 = system: NCI-H522
PC-3 = system: PC-3
RPMI-8226 = system: RPMI-8226
RXF 393 = system: RXF 393
SK-OV-3 = system: SK-OV-3
T47D = system: T47D
TK-10 = system: TK-10
786-0 = system: 786-0
ACHN = system: ACHN
CCRF-CEM = system: CCRF-CEM
COLO 205 = system: COLO 205
HCC 2998 = system: HCC 2998
HCT-116 = system: HCT-116
HL-60 = system: HL-60
HOP-62 = system: HOP-62
HOP-92 = system: HOP-92
HT-29 = system: HT-29
K562 = system: K562
M14 = system: M14
MDA-MB-231 = system: MDA-MB-231
MDA-MB-435 = system: MDA-MB-435
MDA-N = system: MDA-N
MOLT-4 = system: MOLT-4
NCI-H226 = system: NCI-H226
NCI-H23 = system: NCI-H23
NCI-H460 = system: NCI-H460
NCI/ADR-RES = system: NCI/ADR-RES
OVCAR-3 = system: OVCAR-3
OVCAR-4 = system: OVCAR-4
OVCAR-5 = system: OVCAR-5
OVCAR-8 = system: OVCAR-8
SF-268 = system: SF-268
SF-295 = system: SF-295
SF-539 = system: SF-539
SK-MEL-28 = system: SK-MEL-28
SK-MEL-2 = system: SK-MEL-2
SK-MEL-5 = system: SK-MEL-5
SN12C = system: SN12C
SNB-19 = system: SNB-19
SNB-75 = system: SNB-75
SR = system: SR
SW-620 = system: SW-620
U-251 = system: U-251
UACC-257 = system: UACC-257
UO-31 = system: UO-31
UACC-62 = system: UACC-62

Measured: GI50

CN(C)C1C(=O)C(C(N)=O)=C(O)C2(O)C(O)=C3C(=O)c4c(O)cccc4C(C)(O)C3CC12 (configuration not stated)
81.1 µM: HCT-15
inactive: A498 52.2 µM | A549 86.1 µM | BT-549 64 µM | CAKI-1 62.4 µM | DU-145 > 100 µM | EKVX > 100 µM | Hs-578T 63.4 µM | IGROV-1 93.3 µM | KM12 > 100 µM | LOX IMVI 59 µM | MCF7 > 100 µM | Malme-3M 86.1 µM | NCI-H522 86.7 µM | PC-3 76.7 µM | RPMI-8226 81.7 µM | RXF 393 66.5 µM | SK-OV-3 55.6 µM | T47D > 100 µM | TK-10 > 100 µM

CCc1cc2c(cc1CCCC(=O)O)CC1(Cc3ccc(C(=O)O)cc3C1)C2 (configuration not stated)
> 100 µM: HCT-15
inactive: 786-0 > 100 µM | A498 > 100 µM | A549 > 100 µM | ACHN > 100 µM | CAKI-1 > 100 µM | CCRF-CEM > 100 µM | COLO 205 > 100 µM | DU-145 > 100 µM | EKVX > 100 µM | HCC 2998 > 100 µM | HCT-116 > 100 µM | HL-60 > 100 µM | HOP-62 > 100 µM | HOP-92 > 100 µM | HT-29 > 100 µM | Hs-578T > 100 µM | IGROV-1 > 100 µM | K562 > 100 µM | KM12 > 100 µM | LOX IMVI > 100 µM | M14 > 100 µM | MCF7 > 100 µM | MDA-MB-231 > 100 µM | MDA-MB-435 > 100 µM | MDA-N > 100 µM | MOLT-4 > 100 µM | Malme-3M > 100 µM | NCI-H226 > 100 µM | NCI-H23 > 100 µM | NCI-H460 > 100 µM | NCI-H522 > 100 µM | NCI/ADR-RES > 100 µM | OVCAR-3 > 100 µM | OVCAR-4 > 100 µM | OVCAR-5 > 100 µM | OVCAR-8 > 100 µM | PC-3 > 100 µM | RPMI-8226 > 100 µM | RXF 393 > 100 µM | SF-268 > 100 µM | SF-295 > 100 µM | SF-539 > 100 µM | SK-MEL-28 > 100 µM | SK-MEL-2 > 100 µM | SK-MEL-5 > 100 µM | SK-OV-3 > 100 µM | SN12C > 100 µM | SNB-19 > 100 µM | SNB-75 > 100 µM | SR > 100 µM | SW-620 > 100 µM | T47D > 100 µM | TK-10 > 100 µM | U-251 > 100 µM | UACC-257 > 100 µM | UO-31 > 100 µM

Cc1nc(Cl)nc(Cl)c1C
> 100 µM: HCT-15
inactive: 786-0 > 100 µM | A549 > 100 µM | ACHN > 100 µM | BT-549 75.7 µM | CCRF-CEM > 100 µM | EKVX > 100 µM | HCC 2998 > 100 µM | HL-60 > 100 µM | HOP-62 > 100 µM | HT-29 > 100 µM | Hs-578T > 100 µM | IGROV-1 > 100 µM | K562 > 100 µM | KM12 > 100 µM | LOX IMVI > 100 µM | M14 > 100 µM | MCF7 > 100 µM | MDA-MB-435 > 100 µM | MOLT-4 > 100 µM | Malme-3M > 100 µM | NCI-H226 > 100 µM | NCI-H23 > 100 µM | NCI-H460 > 100 µM | NCI-H522 > 100 µM | NCI/ADR-RES > 100 µM | OVCAR-3 > 100 µM | OVCAR-4 > 100 µM | OVCAR-5 > 100 µM | OVCAR-8 > 100 µM | PC-3 > 100 µM | RPMI-8226 > 100 µM | RXF 393 > 100 µM | SF-268 > 100 µM | SF-295 > 100 µM | SF-539 > 100 µM | SK-MEL-28 > 100 µM | SK-MEL-2 > 100 µM | SK-MEL-5 > 100 µM | SK-OV-3 > 100 µM | SN12C > 100 µM | SNB-19 > 100 µM | SNB-75 > 100 µM | SR > 100 µM | SW-620 > 100 µM | TK-10 > 100 µM | U-251 > 100 µM | UACC-257 > 100 µM | UO-31 > 100 µM

Cc1ccc(S(=O)(=O)n2c3c(c4ccccc42)CCN2CCC(Br)C[C@@H]32)cc1 (some centres not stated)
12.1 µM: HCT-15
inactive: 786-0 16.6 µM | A498 22.6 µM | A549 16.7 µM | ACHN 17 µM | CAKI-1 11.8 µM | CCRF-CEM 12.2 µM | COLO 205 16.3 µM | DU-145 15.1 µM | EKVX 19.1 µM | HCC 2998 15 µM | HL-60 5.12 µM | HOP-62 15 µM | HOP-92 18.1 µM | HT-29 13.3 µM | Hs-578T 13.7 µM | IGROV-1 10.1 µM | K562 5.11 µM | KM12 8.81 µM | LOX IMVI 13.9 µM | M14 12.9 µM | MCF7 9.42 µM | MDA-MB-231 16.5 µM | MDA-MB-435 3.79 µM | MDA-N 4.42 µM | MOLT-4 9.73 µM | Malme-3M 13.2 µM | NCI-H226 13.4 µM | NCI-H23 11.7 µM | NCI-H460 14.9 µM | NCI-H522 6.34 µM | NCI/ADR-RES 16.2 µM | OVCAR-3 11.1 µM | OVCAR-4 13.1 µM | OVCAR-5 17.3 µM | OVCAR-8 12.6 µM | PC-3 13.1 µM | RPMI-8226 6.18 µM | RXF 393 12.9 µM | SF-268 16.1 µM | SF-295 11 µM | SF-539 16.7 µM | SK-MEL-28 11.9 µM | SK-MEL-2 16.3 µM | SK-MEL-5 7.74 µM | SK-OV-3 15.7 µM | SNB-19 15.4 µM | SNB-75 12.2 µM | SR 5.11 µM | SW-620 12.8 µM | T47D 6.11 µM | TK-10 15.6 µM | U-251 12.4 µM | UACC-257 7.23 µM | UACC-62 11.9 µM | UO-31 11.9 µM
